A melting point compilation (Tetko et al.; mined from patent text by program, amines drawn as free bases though some values may be those of a salt)

| melting point [°C] | Compound |
| --- | --- |
| 106 | CCCc1cc(C(C)=O)c(O)cc1OCCCCC(=O)O |
| 52 to 54 | CCOC(=O)Cc1sc(Sc2cc(C(=O)OC)ccn2)nc1C |
| 62 to 63 | C=CCOc1ccc(C(=O)Oc2ccc(OCCCCOC(=O)C(=C)C)cc2)cc1 |
| 105 to 106 | C[C@]1(CN2CCN(C3CCN(C(=O)OCc4ccc(OC(F)(F)F)cc4)CC3)CC2)Cn2cc([N+](=O)[O-])nc2O1 |
| 206 to 207 | CC(C)(C)c1cc(NC(=O)Nc2ccc(OCCN3CCOCC3)c3ccccc23)[nH]n1 |
| 57 | Cc1cc(N)c(F)cc1Br |
| 144 to 146 | Fc1ccc(C2(c3ccc(F)cc3)CNC(c3cnccn3)=N2)cc1 |
| 75 | CCCCCCCCCCC(NC(=O)NC12CC3CC(CC(C3)C1)C2)C(=O)OC (stereo not given) |
| 213 to 215 | Cn1c(CCN2CCN(c3ccc(Cl)cc3)CC2)nc2ccc3ccccc3c21 |
| 124 | CCCc1ncc(CCCCC(=O)O)s1 |
| > 250 | O=c1[nH]c2ccc(O)cc2n1CCN1CCN(c2cccc(C(F)(F)F)c2)CC1 |
| 126 to 128 | N#CC1Cc2cc3cc[nH]c3cc21 (stereo not given) |
| 117 to 118 | O=C1C[C@@H](NC(=O)OCc2ccccc2)C(=O)N1 |
| 81 to 84 | O=C(O)Cc1ccc(OCCNC(=O)C2Cc3ccccc3N2S(=O)(=O)c2ccc(-c3cc(C(F)(F)F)ccc3F)cc2)cc1 (stereo not given) |
| 66 to 67 | COc1cnccc1C#N |
| 174 | CC(C)(C)CC(C)(C)c1cc(Cc2cc(C(C)(C)CC(C)(C)C)cc(C(C)(C)CC(C)(C)C)c2O)c(O)c(-n2nc3ccccc3n2)c1 |
| 209 to 210 | CS(=O)(=O)c1ccc(Oc2cc(OCc3ccccc3)c3[nH]c(C#N)cc3c2)cc1 |
| 207 to 209 | CC1(C)OC(=O)Nc2ccc(-c3ccc(C#N)n3CC(=O)O)cc21 |
| 142 | COc1ccc(C2CC(c3cccc(OC)c3)=NN2c2ccc(C(=O)O)cc2)cc1 (stereo not given) |
| 144 to 145 | CC(C)(C)OC(=O)N1CCCCC1c1c[nH]c2ncccc12 (stereo not given) |
| 102 to 104 | CC(C)(CO)Nc1cc(Cl)ccc1[N+](=O)[O-] |
| 99 to 101 | c1ccc2nc(COc3cccc4ccccc34)ccc2c1 |
| 126 to 128 | CCN(C)c1cc(F)cc(C(=O)Nc2ccc(OCCN3CCOCC3)c3ccccc23)c1 |
| 86 to 87 | CC(C)c1nc(CN)n(C)c1Sc1cc(Cl)cc(Cl)c1 |
| 113 to 114 | Cc1cc(OCc2coc(/C=C/c3ccc(S(=O)C(F)(F)F)cc3)n2)ccc1CCCCc1c[nH]nn1 (stereo not given) |
| 58 | CCOC(=O)C(CC)Sc1nc2c(c(=O)n(CCOC)c(=O)n2C)n1Cc1cccc(Br)c1 (stereo not given) |

| melting point [°C] | Compound |
| --- | --- |
| 143 to 147 | CCCCc1nc2c(N)nc3c(c2n1CC(C)C)NCCC3 |
| 138 to 140 | Cc1cc(-n2ccnc2)ccc1[N+](=O)[O-] |
| 159 to 165 | Nc1nc(OCc2ccccc2)c2ncn(CC(=O)O)c2n1 |
| 249 to 251 | COc1ccc(Oc2cccc3ncnc(NC(=O)Nc4cccc(Br)c4)c23)cc1 |
| 200 to 201 | CN(C)CCNC1=CC(=O)c2oc(-c3cc(F)c(F)c(F)c3)nc2C1=O |
| 62 | CC1C(=O)N(Cc2ccccc2)C(=S)N1c1ccc(Oc2ccccc2)cc1 (stereo not given) |
| 263 to 265 | O=C(Nc1csc(-c2cccnc2)n1)c1nnn[nH]1 |
| 200 to 203 | CON=C(C)c1cc(-c2ccc(S(C)(=O)=O)cc2)c(-c2ccc(F)cc2)s1 |
| 216 to 217 | CCCCCCn1ccc(N)nc1=O |
| 77 to 79 | COC1=C(OC)C(=O)C(CCCCCCCCCCCCCCCCCC(=O)O)=C(C)C1=O |
| 174 to 175 | COC(=O)c1cccc(C(=O)Nc2ccc(-n3nc(C(F)(F)F)cc3C(F)(F)F)cc2)c1 |
| 73 to 76 | Clc1ncc(OCc2ccsc2)cn1 |
| 135 to 136 | CCc1nc(OC)c(NC(=O)N2CCN(c3cc(C)cc(C)c3)CC2)cc1C |
| 175 to 177 | COC(=O)c1nc(-c2ccc(Cl)c(OC)c2F)c(F)c(NC(C)=O)c1Cl |
| 95 to 105 | COc1nc(Cn2cncn2)cnc1NS(=O)(=O)c1cccc(Cl)c1Cl |
| 229 to 231 | N#Cc1cnc2c(oc3ccccc32)c1Cl |
| 234 to 236 | COc1cc2c(cc1OC)-c1c(C)nc(Nc3c(C)cccc3C)n1CC2 |
| 153 to 154 | Fc1cccc(CSc2nnc(-c3ccn4ncnc4c3)o2)c1 |
| 107 to 108 | CCOC(=O)c1ccc(NC(=O)CCCCCc2ccc(Cl)cc2)cc1 |
| 191 | COc1ccc(-n2cnnc2S(C)(=O)=O)cc1 |
| 192 to 194 | ON=Cc1cc(-c2ccc(O)cc2)c2occc2c1 |
| 111 to 113 | CC(=O)C=Cc1ccc(CCNS(=O)(=O)c2ccc(Cl)cc2)cc1 |
| 187 to 188 | CCN1C(CNC(=O)c2cc(Cl)c(N)cc2OC)CCC1c1ccccc1 (stereo not given) |
| 50 to 51 | CCNc1c(OC)cc(C(=O)OC)cc1OC |
| 81 to 83 | CC1COC(c2nsc3ccc(-n4c(=O)cc(C(F)(F)F)n(C)c4=O)cc23)O1 (stereo not given) |
| 293 | COC(=O)c1ccc(-c2cc(C)c3[nH]c(=O)ccc3c2)cc1 |

| melting point [°C] | Compound |
| --- | --- |
| 132 to 135 | CC(=N)Nc1cccc(C(C)O)c1 (stereo not given) |
| 78 to 80 | CCSC(C)C(=O)N(CC)c1c[nH]nc1Cl (stereo not given) |
| 103 to 107 | CS(=O)(=O)c1ccc(-n2nc(C(F)(F)F)cc2-c2ccc(-c3cscn3)cc2)cc1Cl |
| 95 to 97 | CCCc1nn(-c2ccc(C(F)(F)F)cn2)cc1CCCCOc1nn(C)cc1CC(=O)O |
| 147 to 148 | CC(=NO)c1ccc(N2CCN(C(=O)CCCCCCC(=O)NO)CC2)cc1 |
| 146 to 147 | O=C(c1ccccc1)c1ccc(Oc2ccc(S(=O)(=O)Cc3ccccc3)cn2)cc1 |
| 230 | Cn1cccc1-c1ccc2c(c1)C(C)(C)OC(=O)N2 |
| 65 to 66 | CC(C)(CCCCCC(=O)CCCCCC1(C(=O)O)CC1)C(=O)O |
| 265 to 268 | Cc1ccc(-n2c(-c3cc(-c4ccc(S(C)(=O)=O)cc4)c(N4CCOCC4)s3)nc3ccccc3c2=O)cc1 |
| 87 to 90 | CCc1cc(C(=O)OC)c(C2=NC(=O)C(C)(C(C)C)N2)nc1COC (stereo not given) |
| 110 to 121 | CCOc1ccc(-c2ccc(C#N)cc2)cc1C=O |
| 71 to 73 | CCOC(=O)N(c1ccccc1[N+](=O)[O-])c1cccc(C)c1C |
| 84 | CCCCC(=O)Oc1cccc(NC(=O)C=C(C)OC)c1 |
| 77 to 83 | COc1cc(OC)nc(Oc2ccc3ccccc3c2C(=O)OCC=NOCC=CCl)n1 |
| 107 to 109 | COC(=O)CC[C@@H](Cc1cn(Cc2ccccc2)c2ccccc12)NC(=O)CCCCCCc1ccccc1 |
| 146 to 147 | CC(C)Oc1n[nH]c(=O)n1C1CC1 |
| 220 to 222 | CCC1C(=O)c2c(cc(O)c(Cl)c2Cl)C1c1ccccc1 (stereo not given) |
| 202 to 208 | O=C1Cc2cc(Cl)ccc2N1O |
| 120 to 121 | COc1ccc(N2CCN(C(=O)C(C)(C)C3OCCc4ccccc43)CC2)cc1 (stereo not given) |
| 95 to 98 | Nc1cc(OCc2ccccc2)c(OCc2ccccc2)cc1C=C(Br)Br |
| 264 to 266 | N#Cc1cnn(-c2ccc(NN)nn2)c1N |
| 144 to 146 | Cc1ccc(CC2CNC(=O)O2)cc1 (stereo not given) |
| 186 | COc1ccc2c(c1)c(CC(=O)OCC(=O)O)c(C)n2C(=O)c1c(F)cccc1F |
| 210 to 212 | Cc1cc(C(=O)Nc2cc(F)ccc2O)c(Br)s1 |
| 87 to 88 | CC(C)(C)OC(=O)CONC(=O)c1ccc(C(=O)C(C)(C)C)cc1 |
| 224 to 226 | COc1ccc2cc(C(N)=O)ccc2c1 |

| melting point [°C] | Compound |
| --- | --- |
| 265 | COc1cc(C(=O)Cn2c(-c3nonc3N)nc3ccccc32)ccc1O |
| 60 to 63 | CCCCCCOc1cc(-n2c(=O)cc(C(F)(F)F)n(C)c2=O)c(F)cc1Cl |
| 267 to 272 | CS(=O)c1n[nH]c2ccc(Cl)cc2c1=O (stereo not given) |
| 99 to 101 | Cc1ccc(C(O)Cc2nc(C)c(C)nc2C)cc1 (stereo not given) |
| 163 to 165 | Cc1c(Br)ccc(O)c1C(=O)O |
| 142 | CCOC(=O)c1ccccc1N(CC(=O)OC(C)(C)C)C(=O)CNC(=O)Nc1cccc(C)c1 |
| 75 to 86 | CCCN1CCC(Cc2ccc3c(c2)c(Cc2ccc(C(=O)O)cc2OC)cn3CCC)C1=O (stereo not given) |
| 250 to 254 | CCCc1cc2c(=O)n3cc(C(=O)O)ccc3nc2s1 |
| 101 to 102 | COC(=O)c1nc2ccccc2o1 |
| 109 to 112 | NC(CO)(CO)C(=O)O |
| 96 to 99 | Nc1ccc(-c2ccccc2)cc1N |
| 47 to 48 | CN(C=O)c1ccc(F)c(Cl)c1 |
| 212 to 214 | N#CN1CCC(=C2c3ccccc3CCc3ccncc32)CC1 |
| 175 to 179 | CC1(C)CCC(C)(C)c2cc(C(=O)CSc3ccc(C(=O)O)cc3)ccc21 |
| 136 to 138 | COC(=O)NC1CC(=O)N(c2cc(Cl)cc(Cl)c2)C1=O (stereo not given) |
| 204 to 205 | COc1ccc(-c2coc3ccc(-c4nnc(S)o4)cc23)cc1 |
| 105 to 108 | CCOC(=O)c1ccc(N(CCO)C(=O)Nc2ccc(C3CCN(C(=O)C(F)(F)F)CC3)cc2)cc1 |
| 113 to 114 | CCN(CC)C(=O)c1cc(C)ccc1-c1ccc(OC)cc1 |
| 98 to 100 | Cn1cnc2c1c(=O)n(CCCCCCO)c(=O)n2C |
| 119 to 121 | CCC(O)(c1ccc(F)cc1)c1ccc(OCCCN2CCN(Cc3ccccc3)CC2)cc1 (stereo not given) |
| 206 | O=C1NC(=O)C(c2ccccc2)=C1Nc1ccc(OC(F)(F)F)cc1 |
| 235 to 237 | Cn1c(=O)cc(C(F)(F)F)[nH]c1=O |
| 188 | O=C(O)CN(CC(=O)O)c1cccc(N(CC(=O)O)CC(=O)O)c1 |
| 285 to 287 | COc1cc(Cc2cnc(N)nc2N)cc2cccnc12 |

| Compound | melting point [°C] |
| --- | --- |
| CCOC(=O)c1ncn2c1C(C)N=C(c1ccccc1F)c1cc(C#C[Si](C)(C)C)ccc1-2 (stereo not given) | 186 to 187 |
| CN(C)CCc1cn(Cc2ccccc2)c2ccc(Br)cc12 | 49 to 50 |
| N#CC1CN1C(=O)CCC(N)=O (stereo not given) | 68 to 72 |
